For experiment [1], the target named is T1, Histamine H3 receptor (Homo sapiens, UniProt Q9Y5N1). Nature of the experiment: Displacement of bodilisant from recombinant human histamine H3 receptor stably transfected in HEK-293T cells membrane at 1 to 10 uM incubated for 60 mins by fluorescence-polarization assay. To be noted: Cell membrane, dose 1-10 µM. It counts as cell membranes.
The target of experiment [2] is T1, Histamine H3 receptor. Nature of the experiment: Displacement of [3H]Nalpha-methylhistamine from recombinant human histamine H3 receptor stably transfected in HEK-293T cells membrane incubated for 90 mins by scintillation counting method. It counts as cell membranes, Cell membrane.
Experiment [3] deals with T1, Histamine H3 receptor. As to the kind of experiment: Agonist activity at human H3 receptor expressed in HEK293 cells preincubated for 30 mins followed by [35S]-GTPgammaS addition and measured after 30 mins by liquid scintillation counting method. It counts as functional, cell-based. Particulars: time 60.0 min. For orientation: GTPγS resists hydrolysis and so accumulates on activated G proteins.

The target in experiment [4] is T1, Histamine H3 receptor. As to the kind of experiment: Antagonist activity at human H3 receptor expressed in CHO cells assessed as decrease in cAMP accumulation by measuring increase in forskolin level incubated for 4 hrs in presence of histamine by CRE/MRE-luciferase reporter gene assay. It counts as functional, cell-based.
The target in experiment [5] is T1, Histamine H3 receptor. Nature of the experiment: Antagonist activity at human H3 receptor expressed in HEK293 cells assessed as reversion of (R)alpha-MeHA induced activity preincubated for 30 mins followed by [35S]-GTPgammaS addition and measured after 30 mins by liquid scintillation counting method. It counts as functional, cell-based. Particulars: filed as antagonist, time 60.0 min.

Experiment [6] has as its target T1, Histamine H3 receptor. Nature of the experiment: Partial agonist activity at human H3 receptor stably transfected in CHO-DUKX cells assessed as […] by measuring reduction in forskolin level by HitHunter-cAMP assay relative to histamine. The experiment is classed as functional, cell-based. (cAMP levels reflect the balance of adenylyl cyclase and phosphodiesterase activity.)

The target in experiment [7] is T1, Histamine H3 receptor. As to the kind of experiment: Agonist activity at human H3 receptor expressed in CHO cells assessed as […] by measuring reduction in forskolin level incubated for 4 hrs by CRE/MRE-luciferase reporter gene assay. The experiment is classed as functional, cell-based.

The text below walks through data of ChEMBL document CHEMBL4680206, “Novel pyrrolidinone derivative lacks claimed histamine H receptor stimulation in receptor binding and functional studies” (Eur J Med Chem, 2020).

Activity calls are given as the source filed them. No cut-off for these calls is given here.

T1 sequence (Q9Y5N1 whole entry): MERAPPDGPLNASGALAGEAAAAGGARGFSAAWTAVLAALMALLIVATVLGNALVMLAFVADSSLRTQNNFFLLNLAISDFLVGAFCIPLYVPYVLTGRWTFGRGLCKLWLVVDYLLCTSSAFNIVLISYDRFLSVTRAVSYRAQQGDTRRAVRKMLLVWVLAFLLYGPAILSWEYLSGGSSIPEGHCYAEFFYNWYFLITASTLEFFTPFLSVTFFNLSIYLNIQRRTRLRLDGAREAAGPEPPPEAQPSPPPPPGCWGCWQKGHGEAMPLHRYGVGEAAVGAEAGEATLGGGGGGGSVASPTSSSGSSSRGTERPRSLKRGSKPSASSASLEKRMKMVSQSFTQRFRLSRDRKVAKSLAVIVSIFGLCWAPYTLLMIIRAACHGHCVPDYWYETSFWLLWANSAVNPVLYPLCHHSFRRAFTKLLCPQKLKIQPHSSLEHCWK

As to `Clc1ccc(CCCOCCCN2CCCCC2)cc1`, the outcome on Histamine H3 receptor [1] (filed as antagonist) was Active.

With `CC1=CC(C)=[N+]2C1=C(c1ccc(OCCCN3CCCCC3)cc1)c1c(C)cc(C)n1[B-]2(F)F`, the Kd – broadly, the equilibrium constant for the complex coming apart – at Histamine H3 receptor [2] stood at 1.9 nM.

As for `COc1cc(NC2(c3cccc(Cl)c3)C(=O)N(C(C)(C)C)C(=O)C2=Cc2ccccc2)cc(OC)c1OC` (centres undefined), the outcome on Histamine H3 receptor [3], at Histamine H3 receptor [1] and at Histamine H3 receptor [4] was inactive. For the same molecule, the Ki (in general, the equilibrium dissociation constant of an inhibitor or competing ligand from its target) on Histamine H3 receptor [2] amounted to 3200 nM. Besides, the result on Histamine H3 receptor [5] was Active. Further, the Ratio at Histamine H3 receptor [6] worked out at 0.14.

For the molecule `N=C(N)SCCc1cnc[nH]1` [IMETIT], the EC50 – broadly, the concentration needed to bring the measured effect to its halfway point – at Histamine H3 receptor [7] was determined as 2.9 nM.
